Values of other authors as cited in US9278942B2, “Non-steroidal compounds as androgen receptor modulators” (FLX Discoveries Oy, priority 2011, dated 2016).

Molecular target: T1, LNCaP (containing an AR mutation) (Homo sapiens, UniProt P10275, T878A)
T1 sequence (P10275 1-920 T878A): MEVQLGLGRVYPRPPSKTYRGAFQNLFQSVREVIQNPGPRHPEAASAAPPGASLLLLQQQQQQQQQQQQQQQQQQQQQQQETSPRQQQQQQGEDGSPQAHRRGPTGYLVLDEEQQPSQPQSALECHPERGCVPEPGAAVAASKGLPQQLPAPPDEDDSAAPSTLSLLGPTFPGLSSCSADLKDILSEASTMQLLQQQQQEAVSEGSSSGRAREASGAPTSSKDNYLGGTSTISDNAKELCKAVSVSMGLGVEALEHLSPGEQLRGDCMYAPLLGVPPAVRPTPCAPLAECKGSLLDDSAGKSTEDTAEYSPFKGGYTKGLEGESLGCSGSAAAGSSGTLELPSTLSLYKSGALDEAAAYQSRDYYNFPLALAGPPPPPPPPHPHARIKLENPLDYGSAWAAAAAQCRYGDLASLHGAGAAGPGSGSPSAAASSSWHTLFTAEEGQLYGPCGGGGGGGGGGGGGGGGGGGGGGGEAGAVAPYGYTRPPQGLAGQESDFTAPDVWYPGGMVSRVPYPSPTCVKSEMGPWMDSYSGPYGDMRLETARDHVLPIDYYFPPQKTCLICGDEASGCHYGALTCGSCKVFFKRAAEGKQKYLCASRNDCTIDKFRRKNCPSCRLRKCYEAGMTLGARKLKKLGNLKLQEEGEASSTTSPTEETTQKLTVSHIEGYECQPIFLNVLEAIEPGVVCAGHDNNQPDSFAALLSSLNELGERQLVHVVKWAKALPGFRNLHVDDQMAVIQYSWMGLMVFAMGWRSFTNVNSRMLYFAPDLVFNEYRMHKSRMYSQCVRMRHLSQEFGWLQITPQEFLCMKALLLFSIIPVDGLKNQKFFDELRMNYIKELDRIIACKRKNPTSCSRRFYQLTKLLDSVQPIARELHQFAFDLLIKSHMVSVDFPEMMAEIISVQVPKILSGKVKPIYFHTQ
Conditions: LNCaP prostate cancer cells; cited from earlier work

In the case of `CC(C)(O)C(=O)Nc1ccc([N+](=O)[O-])c(C(F)(F)F)c1` [Hydroxyflutamide, reference compound], the “Activity of hydroxyflutamide at the AR mutation of LNCaP cells” value is given as “agonist”.
